Results taken from PMC10788923 (Journal of Medicinal Chemistry, 2023).

Legend:
[1] = Mouse liver microsome stability; assay type: in vitro ADME; conditions: 0.5 mg protein/mL, 37 °C
[2] = In vivo pharmacokinetic study, oral dosing; design: species or system male C57BL/6J mice
[3] = mouse, liver microsomes, read-out: MLM t1/2
[4] = male, C57BL/6J, mouse plasma, PO 10 mg/kg, second number = SD

| SMILES | half-life at 1 h, 1 µM [1, 3] [min] | MLM t1/2 ([1]; mouse liver microsomes, 1 μM) [min] | half-life at 1 μM [1, 3] [min] | half-life ([2]; male, C57BL/6J, plasma, mouse, oral dosing 10 mg/kg) [min] | Cmax at 24 h ([2]; male, C57BL/6J, mouse plasma, PO 10 mg/kg) [nM] | Tmax at 24 h [2, 4] [min] | half-life at 24 h [2, 4] [min] | MRT inf at 24 h ([2]; male, C57BL/6J, mouse plasma, PO 10 mg/kg, second number = SD, read-out: MRT0-inf) [min] | oral bioavailability (in words) ([2]; mouse, oral dosing 10 mg/kg) |
| --- | --- | --- | --- | --- | --- | --- | --- | --- | --- |
| [O-][n+]1cccc(CCOc2ccc(Cl)c(C3CC3)c2)c1 [Compound 41, 3-(2-(4-Chloro-3-cyclopropylphenoxy)ethyl)pyridine 1-oxide] | 7.2 |  |  |  |  |  |  |  |  |
| O=c1cccc(CCOc2ccc(Cl)cc2)[nH]1 [Compound 60, 6-(2-(4-Chlorophenoxy)ethyl)pyridin-2-ol] | 11.7 |  |  |  |  |  |  |  |  |
| [O-][n+]1cc(O)cc(CCCc2ccc(Cl)c(C(F)(F)F)c2)c1 [Compound 69, 3-(3-(4-Chloro-3-(trifluoromethyl)phenyl)propyl)-5-hydroxypyridine 1-oxide] |  | 104.7 | 105 | 53 | 310 | 25 | 53.3 | 81 | orally bioavailable |
